In patent publication EP4793274A1, “SALT AND CRYSTAL FORM OF KIF18A INHIBITOR COMPOUND, PREPARATION METHOD THEREFOR AND USE THEREOF” (Hubei Bio-Pharmaceutical Industrial Technological Institute …, priority 2023, dated 2025):
Where a name gives a salt, the structure may show the parent alone.

Key:
[1] = Dynamic solubility at 37 °C in H2O, SGF, FaSSIF and FeSSIF (HPLC concentration, pH of filtrate, XRPD of residual solid); format: physicochemical; conditions: listed as Crystal form E of methanesulfonate; for S: solubility: feeding concentration 10 mg/mL; for FC: crystal form change: XRPD of residual solid; for pH: pH of filtrate
Description: 0.82 mL of glacial acetic acid and 1.18 g of NaCl were added to a 100 mL volumetric flask and completely dissolved by addition of purified water.
The solubility of each sample in H2O, SGF, FaSSIF, and FeSSIF was determined at different time points (1 h, 2 h, 4 h, and 24 h). […] 137-156. […] Table C-2. Summary of dynamic solubility test results at 37 °C

[2] = Hygroscopicity by dynamic vapor sorption (DVS); format: physicochemical; conditions: 25 °C/80% RH
Description: Dynamic vapor sorption (DVS) curves were acquired on a DVS IntrInsic from Surface Measurement Systems (SMS). The relative humidity at 25 °C was corrected with the deliquescence points of LiCl, Mg(NO3)2, and KCl. Table A-5. DVS test parameters
The percentage changes in mass of the samples when the humidity changed (0% RH to 95% RH) at a constant temperature of 25 °C were collected. 157-166.

[3] = Solid state stability (XRPD and HPLC purity); format: physicochemical
Source text: 167-171. […] Table C-3. Summary of solid state stability evaluation

[4] = Solubility at room temperature in water, SGF and FaSSIF (HPLC concentration, pH of filtrate, XRPD of residual solid); conditions: for S: solubility: feeding concentration 1 mg/mL; for pH: pH of filtrate
Description: 100 mg of NaCl and 50 mg of Triton X-100 were weighed into a 50 mL volumetric flask and then completely dissolved by addition of purified water. 816 µL of 1 M hydrochloric acid was added, and the pH was adjusted to 1.8 with 1 M hydrochloric acid or 1 M NaOH solution. The mixed solution was brought to the volume by addition of purified water.
340 mg of anhydrous NaH2PO4 and 620 mg of NaCl were weighed into a 100 mL volumetric flask, and then completely dissolved by addition of purified water. 55.44 µL of a 50% NaOH solution was then added, and the pH was adjusted to 6.5 with 1 M hydrochloric acid or 1 M NaOH solution. The mixed solution was brought to the volume by addition of purified water. Subsequently, 110 mg of SIF powder was weighed into a 50 mL volumetric flask and completely dissolved in the solution described above, and the mixed solution was brought to the volume.
Solids at a feeding concentration of 1 mg/mL (calculated based on free crystal form) were rotationally mixed with corresponding vehicles at room temperature. […] After sampling at each time point, the samples were centrifuged (at 10000 rpm) and filtered (through a 0.22 µm PTFE filter head), the HPLC concentrations and pH values of the filtrates were determined, and the centrifuged solid samples were subjected to XRPD analysis.

[5] = 80 °C/sealed, 1 day, listed as Crystal form E of methanesulfonate

For `Cc1cc(-c2cnn(-c3ccc(NS(=O)(=O)CCO)cc3N3CCC4(CC3)CC4)c2)nc(N2CCC(F)(F)CC2)n1` [crystal form E of the methanesulfonate], the “S: solubility” value ([1]; FaSSIF, 1 h, 60 min) was 60.4 µg/mL, the “S: solubility” value ([1]; FaSSIF, 2 h, 120 min) was 46.6 µg/mL and the “S: solubility” value ([1]; FaSSIF, 4 h, 240 min) was 35.9 µg/mL. For the same compound, the “S: solubility” value ([1]; FaSSIF, 24 h, 1440 min) was 18.7 µg/mL, the “S: solubility” value ([1]; FeSSIF, 1 h, 60 min) was 194.4 µg/mL and the “S: solubility” value ([1]; FeSSIF, 2 h, 120 min) was 183.4 µg/mL. The “S: solubility” value ([1]; FeSSIF, 4 h, 240 min) was 172.5 µg/mL, the “S: solubility” value ([1]; FeSSIF, 24 h, 1440 min) was 89.9 µg/mL and the “S: solubility” value ([1]; H2O, 1 h, 60 min) was 18.5 µg/mL. For the same compound, the “S: solubility” value ([1]; H2O, 2 h, 120 min) was 14.5 µg/mL, the “S: solubility” value ([1]; H2O, 4 h, 240 min) was 12.4 µg/mL and the “S: solubility” value ([1]; H2O, 24 h, 1440 min) was 4.5 µg/mL. For the same compound, the “S: solubility” value ([1]; SGF, 1 h, 60 min) was 125.1 µg/mL, the “S: solubility” value ([1]; SGF, 2 h, 120 min) was 100.2 µg/mL and the “S: solubility” value ([1]; SGF, 4 h, 240 min) was 84.6 µg/mL. The “S: solubility” value ([1]; SGF, 24 h, 1440 min) was 16.4 µg/mL, the “FC: crystal form change” value ([1]; FaSSIF, 1 h) was “Yes” and the “FC: crystal form change” value ([1]; FaSSIF, 2 h) was “Yes”. The “FC: crystal form change” value ([1]; FaSSIF, 4 h) was “Yes”, the “FC: crystal form change” value ([1]; FaSSIF, 24 h) was “Yes” and the “FC: crystal form change” value ([1]; FeSSIF, 1 h) was “Yes”. The “FC: crystal form change” value ([1]; FeSSIF, 2 h) was “Yes”, the “FC: crystal form change” value ([1]; FeSSIF, 4 h) was “Yes” and the “FC: crystal form change” value ([1]; FeSSIF, 24 h) was “Yes”. The “FC: crystal form change” value ([1]; H2O, 1 h) was “Yes”, the “FC: crystal form change” value ([1]; H2O, 2 h) was “Yes” and the “FC: crystal form change” value ([1]; H2O, 4 h) was “Yes”. The “FC: crystal form change” value ([1]; H2O, 24 h) was “Yes”, the “FC: crystal form change” value ([1]; SGF, 1 h) was “Yes” and the “FC: crystal form change” value ([1]; SGF, 2 h) was “Yes”. For the same compound, the “FC: crystal form change” value ([1]; SGF, 4 h) was “Yes”, the “FC: crystal form change” value ([1]; SGF, 24 h) was “Yes” and the pH ([1]; FaSSIF, 1 h) was 2.78. The pH ([1]; FaSSIF, 2 h) was 2.76, the pH ([1]; FaSSIF, 4 h) was 2.77 and the pH ([1]; FaSSIF, 24 h) was 2.84. The pH ([1]; FeSSIF, 1 h) was 4.69, the pH ([1]; FeSSIF, 2 h) was 4.68 and the pH ([1]; FeSSIF, 4 h) was 4.70. It also gave a pH ([1]; FeSSIF, 24 h) of 4.70, a pH ([1]; H2O, 1 h) of 1.79 and a pH ([1]; H2O, 2 h) of 1.76. For the same compound, the pH ([1]; H2O, 4 h) was 1.80, the pH ([1]; H2O, 24 h) was 1.76 and the pH ([1]; SGF, 1 h) was 1.49. It also gave a pH ([1]; SGF, 2 h) of 1.46, a pH ([1]; SGF, 4 h) of 1.48 and a pH ([1]; SGF, 24 h) of 1.54. For the same compound, the vapor sorption values [2] was 2.324%, the “HPLC results Relative to starting (%)” value ([3]; 25 °C/60% RH/open, 1 week) was 100.0% and the “HPLC results Purity (area%)” value ([3]; 25 °C/60% RH/open, 1 week, listed as Crystal form E of methanesulfonate) was 98.39 area%. The “HPLC results Relative to starting (%)” value ([3]; 40 °C/75% RH/open, 1 week) was 100.0%, the “HPLC results Purity (area%)” value ([3]; 40 °C/75% RH/open, 1 week, listed as Crystal form E of methanesulfonate) was 98.39 area% and the “HPLC results Purity (area%)” value [3, 5] was 98.37 area%. The “HPLC results Relative to starting (%)” value [3, 5] was 100.0%, the “HPLC results Purity (area%)” value ([3]; Starting, listed as Crystal form E of methanesulfonate) was 98.36 area% and the Crystal form ([3]; XRPD after 25 °C/60% RH/open, 1 week, listed as Crystal form E of methanesulfonate) was “Crystal form E of methanesulfonate”. The Crystal form ([3]; XRPD after 40 °C/75% RH/open, 1 week, listed as Crystal form E of methanesulfonate) was “Crystal form E of methanesulfonate” and the Crystal form ([3]; XRPD after 80 °C/sealed, 1 day, listed as Crystal form E of methanesulfonate) was “Crystal form E of methanesulfonate”.
In the case of `Cc1cc(-c2cnn(-c3ccc(NS(=O)(=O)CCO)cc3N3CCC4(CC3)CC4)c2)nc(N2CCC(F)(F)CC2)n1` [free crystal form C], the “S: solubility” value ([4]; FaSSIF, 2 h, 120 min) is reported as 13.6 µg/mL, the “S: solubility” value ([4]; FaSSIF, 24 h, 1440 min) is reported as 3.8 µg/mL and the “S: solubility” value ([4]; SGF, 2 h, 120 min) is reported as 4 µg/mL. The “S: solubility” value ([4]; SGF, 24 h, 1440 min) was 3.4 µg/mL, the pH ([4]; FaSSIF, 2 h) was 6.5 and the pH ([4]; FaSSIF, 24 h) was 6.5. The pH ([4]; H2O, 2 h) was 8.7, the pH ([4]; H2O, 24 h) was 7.2 and the pH ([4]; SGF, 2 h) was 1.9. For the same compound, the pH ([4]; SGF, 24 h) was 1.9.
With `Cc1cc(-c2cnn(-c3ccc(NS(=O)(=O)CCO)cc3N3CCC4(CC3)CC4)c2)nc(N2CCC(F)(F)CC2)n1` [crystal form C of the hydrochloride] the “S: solubility” value ([4]; FaSSIF, 2 h, listed as Crystal form C of hydrochloride, 120 min) was 120.4 µg/mL, the “S: solubility” value ([4]; FaSSIF, 24 h, listed as Crystal form C of hydrochloride, 1440 min) was 36.3 µg/mL and the “S: solubility” value ([4]; H2O, 24 h, listed as Crystal form C of hydrochloride, 1440 min) was 0.2 µg/mL. The “S: solubility” value ([4]; SGF, 2 h, listed as Crystal form C of hydrochloride, 120 min) was 54.1 µg/mL, the “S: solubility” value ([4]; SGF, 24 h, listed as Crystal form C of hydrochloride, 1440 min) was 18.8 µg/mL and the pH ([4]; FaSSIF, 2 h, listed as Crystal form C of hydrochloride) was 6.3. For the same compound, the pH ([4]; FaSSIF, 24 h, listed as Crystal form C of hydrochloride) was 6.3, the pH ([4]; H2O, 2 h, listed as Crystal form C of hydrochloride) was 2.7 and the pH ([4]; H2O, 24 h, listed as Crystal form C of hydrochloride) was 2.7. The pH ([4]; SGF, 2 h, listed as Crystal form C of hydrochloride) was 1.8 and the pH ([4]; SGF, 24 h, listed as Crystal form C of hydrochloride) was 1.8.
